Results: patent publication US7009052B2, “Sulfonamide derivatives” (Warner Lambert Company LLC, priority 2003, dated 2006)

Target: T1, androgen receptor (Homo sapiens, UniProt P10275)
T1 sequence (P10275 1-920 Q868H): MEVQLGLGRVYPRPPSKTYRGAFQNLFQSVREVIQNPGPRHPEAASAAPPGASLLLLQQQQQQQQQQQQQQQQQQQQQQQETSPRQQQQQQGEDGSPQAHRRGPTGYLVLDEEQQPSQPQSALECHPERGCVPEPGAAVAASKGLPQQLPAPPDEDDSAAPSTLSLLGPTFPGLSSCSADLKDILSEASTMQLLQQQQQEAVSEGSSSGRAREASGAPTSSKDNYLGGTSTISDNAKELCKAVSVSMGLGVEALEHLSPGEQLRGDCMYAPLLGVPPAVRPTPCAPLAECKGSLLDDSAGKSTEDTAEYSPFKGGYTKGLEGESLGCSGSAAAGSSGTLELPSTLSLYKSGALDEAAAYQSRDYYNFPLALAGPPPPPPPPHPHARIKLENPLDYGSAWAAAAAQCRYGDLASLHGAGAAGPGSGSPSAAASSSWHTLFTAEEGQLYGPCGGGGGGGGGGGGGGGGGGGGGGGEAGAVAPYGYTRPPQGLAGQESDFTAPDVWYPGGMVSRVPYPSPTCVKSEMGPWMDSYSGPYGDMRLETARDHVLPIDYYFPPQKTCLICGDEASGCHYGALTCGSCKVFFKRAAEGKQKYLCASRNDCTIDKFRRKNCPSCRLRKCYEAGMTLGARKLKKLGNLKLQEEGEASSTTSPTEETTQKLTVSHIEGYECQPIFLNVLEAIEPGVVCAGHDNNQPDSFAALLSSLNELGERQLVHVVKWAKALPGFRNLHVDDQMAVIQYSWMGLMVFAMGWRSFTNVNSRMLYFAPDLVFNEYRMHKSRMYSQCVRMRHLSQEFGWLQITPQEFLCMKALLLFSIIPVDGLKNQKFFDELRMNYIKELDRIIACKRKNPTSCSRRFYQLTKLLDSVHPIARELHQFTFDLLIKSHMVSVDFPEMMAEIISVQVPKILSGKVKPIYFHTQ
Assay: AR Antagonist Cell Assay (MMTV-luciferase reporter, DHT-induced)
Format: cell-based
Settings: MDA-MB453-MMTV clone 54-19 cells, 100 pM DHT, 17 hr
Outline: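 Stably transfected MDA-MB453 cells carrying an ARE-containing MMTV promoter–firefly luciferase reporter, pretreated 30 min with compound at 10 uM or 1 uM in 1% charcoal-treated serum medium. Then stimulated with 100 pM DHT for 17 hr at 37° C. and luminescence read; expressed as % inhibition of DHT-induced signal.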

SMILES | IC50 [nM]
CCCCN(C)S(=O)(=O)c1ccc2[nH]c(=O)cc(C(F)(F)F)c2c1 [Example 76, 2-Oxo-4-trifluoromethyl-1,2-dihydroquinoline-6-sulfonic acidbutylmethylamide] | 210
CN(CCC#N)S(=O)(=O)c1ccc2[nH]c(=O)cc(C(F)(F)F)c2c1 [Example 77, 2-Oxo-4-trifluoromethyl-1,2-dihydroquinoline-6-sulfonic acid(2-cyanoethyl)methylamide] | 1040
CN(CCc1ccccc1)S(=O)(=O)c1ccc2[nH]c(=O)cc(C(F)(F)F)c2c1 [Example 78, 2-Oxo-4-trifluoromethyl-1,2-dihydroquinoline-6-sulfonic acidmethylphenethylamide] | 150
CCN(Cc1ccccc1)S(=O)(=O)c1ccc2[nH]c(=O)cc(C(F)(F)F)c2c1 [Example 79, 2-Oxo-4-trifluoromethyl-1,2-dihydroquinoline-6-suifonic acidbenzylethylamide] | 390
COCCN(CCOC)S(=O)(=O)c1ccc2[nH]c(=O)cc(C(F)(F)F)c2c1 [Example 80, 2-Oxo-4-trifluoromethyl-1,2-dihydroquinoline-6-sulfonic acidbis(2-methoxyethyl)amide] | > 10000
O=c1cc(C(F)(F)F)c2cc(S(=O)(=O)Nc3cccnc3)ccc2[nH]1 [Example 81, 2-Oxo-4-trifluoromethyl-1,2-dihydroquinoline-6-sulfonic acidpyridin-3-ylamide] | > 10000
Cc1cccc(NS(=O)(=O)c2ccc3[nH]c(=O)cc(C(F)(F)F)c3c2)c1 [Example 82, 2-Oxo-4-trifluoromethyl-1,2-dihydroquinoline-6-sulfonic acidm-tolylamide] | 830
Cc1ccc(NS(=O)(=O)c2ccc3[nH]c(=O)cc(C(F)(F)F)c3c2)cc1 [Example 83, 2-Oxo-4-trifluoromethyl-1,2-dihydroquinoline-6-sulfonic acidp-tolylamide] | 1140
O=c1cc(C(F)(F)F)c2cc(S(=O)(=O)Nc3ccc(F)cc3)ccc2[nH]1 [Example 84, 2-Oxo-4-trifluoromethyl-1,2-dihydroquinoline-6-sulfonic acid(4-fluorophenyl)amide] | 7080
Cc1cc(NS(=O)(=O)c2ccc3[nH]c(=O)cc(C(F)(F)F)c3c2)n(C)n1 [Example 85, 2-Oxo-4-trifluoromethyl-1,2-dihydroquinoline-6-sulfonic acid(2,5-dimethyl-2H-pyrazol-3-yl)amide] | > 10000
C#Cc1ccc(NS(=O)(=O)c2ccc3[nH]c(=O)cc(C(F)(F)F)c3c2)cc1 [Example 86, 2-Oxo-4-trifluoromethyl-1,2-dihydroquinoline-6-sulfonic acid(4-ethynylphenyl)amide] | 450
N#Cc1cccc(NS(=O)(=O)c2ccc3[nH]c(=O)cc(C(F)(F)F)c3c2)c1 [Example 87, 2-Oxo-4-trifluoromethyl-1,2-dihydroquinoline-6-sulfonic acid(3-cyanophenyl)amide] | 3550
CCc1cccc(NS(=O)(=O)c2ccc3[nH]c(=O)cc(C(F)(F)F)c3c2)c1 [Example 88, 2-Oxo-4-trifluoromethyl-1,2-dihydroquinoline-6-sulfonic acid(3-ethylphenyl)amide] | 130
CCc1ccc(NS(=O)(=O)c2ccc3[nH]c(=O)cc(C(F)(F)F)c3c2)cc1 [Example 89, 2-Oxo-4-trifluoromethyl-1,2-dihydroquinoline-6-sulfonic acid(4-ethylphenyl)amide] | 360
Cc1cccc(C)c1NS(=O)(=O)c1ccc2[nH]c(=O)cc(C(F)(F)F)c2c1 [Example 90, 2-Oxo-4-trifluoromethyl-1,2-dihydroquinoline-6-sulfonic acid(2,6-dimethylphenyl)amide] | > 10000
O=c1cc(C(F)(F)F)c2cc(S(=O)(=O)Nc3cccc(CO)c3)ccc2[nH]1 [Example 91, 2-Oxo-4-trifluoromethyl-1,2-dihydroquinoline-6-sulfonic acid(3-hydroxymethylphenyl)amide] | 3130
